This is an account of results in PubChem BioAssay AID1259407 (Chemical Carcinogenesis Research Information System (CCRIS), 2018).

The source made the active and inactive calls. How the calls were made is not given here.

This data set relates to CCRIS mutagenicity, Ames/micronucleus/aberration tests. Briefly: CCRIS mutagenicity studies.
The mark [1] stands for this setting: Test System: AMES SALMONELLA TYPHIMURIUM, Strain/Indicator: TA98, Metabolic Activation: NONE, Method: PREINCUBATION
Where [2] appears, read: Test System: AMES SALMONELLA TYPHIMURIUM, Strain/Indicator: TA98, Metabolic Activation: RAT, LIVER, S-9, AROCLOR 1254, Method: PREINCUBATION
Setting [3] is: Test System: AMES SALMONELLA TYPHIMURIUM, Strain/Indicator: TA100, Metabolic Activation: NONE, Method: PREINCUBATION
[4] abbreviates: Test System: AMES SALMONELLA TYPHIMURIUM, Strain/Indicator: TA100, Metabolic Activation: RAT, LIVER, S-9, AROCLOR 1254, Method: PREINCUBATION
The mark [5] stands for this setting: Test System: AMES SALMONELLA TYPHIMURIUM, Strain/Indicator: TA1535, Metabolic Activation: NONE, Method: PREINCUBATION
[6] abbreviates: Test System: AMES SALMONELLA TYPHIMURIUM, Strain/Indicator: TA1535, Metabolic Activation: RAT, LIVER, S-9, AROCLOR 1254, Method: PREINCUBATION
Setting [7] is: Test System: AMES SALMONELLA TYPHIMURIUM, Strain/Indicator: TA1537, Metabolic Activation: NONE, Method: PREINCUBATION
[8] abbreviates: Test System: AMES SALMONELLA TYPHIMURIUM, Strain/Indicator: TA1537, Metabolic Activation: RAT, LIVER, S-9, AROCLOR 1254, Method: PREINCUBATION
Setting [9] is: Test System: AMES SALMONELLA TYPHIMURIUM, Strain/Indicator: TA98, Metabolic Activation: NONE, Method: STANDARD PLATE.
Setting [10] is: Test System: AMES SALMONELLA TYPHIMURIUM, Strain/Indicator: TA98, Metabolic Activation: RAT, LIVER, S-9, AROCLOR 1254, Method: STANDARD PLATE.
Where [11] appears, read: Test System: AMES SALMONELLA TYPHIMURIUM, Strain/Indicator: TA100, Metabolic Activation: NONE, Method: STANDARD PLATE.
Setting [12] is: Test System: AMES SALMONELLA TYPHIMURIUM, Strain/Indicator: TA100, Metabolic Activation: RAT, LIVER, S-9, AROCLOR 1254, Method: STANDARD PLATE.
Setting [13] is: Test System: AMES SALMONELLA TYPHIMURIUM, Strain/Indicator: TA1535, Metabolic Activation: NONE, Method: STANDARD PLATE.
Setting [14] is: Test System: AMES SALMONELLA TYPHIMURIUM, Strain/Indicator: TA1535, Metabolic Activation: RAT, LIVER, S-9, AROCLOR 1254, Method: STANDARD PLATE.
[15] abbreviates: Test System: AMES SALMONELLA TYPHIMURIUM, Strain/Indicator: TA1538, Metabolic Activation: NONE, Method: STANDARD PLATE.
Setting [16] is: Test System: AMES SALMONELLA TYPHIMURIUM, Strain/Indicator: TA1538, Metabolic Activation: RAT, LIVER, S-9, AROCLOR 1254, Method: STANDARD PLATE.

Regarding `O=CCC=O`, the mutagenic call is “inactive; negative” (End Point: IN VITRO CHROMOSOMAL ABERRATIONS, Test System: CHO CELLS, Metabolic Activation: RAT, LIVER, S-9, AROCLOR 1254); “active; positive” (Test System: AMES SALMONELLA TYPHIMURIUM, Strain/Indicator: HISD3052, Metabolic Activation: NONE, Method: STANDARD PLATE); “inactive; negative” (Test System: AMES SALMONELLA TYPHIMURIUM, Strain/Indicator: TA94, Metabolic Activation: NONE, Method: STANDARD PLATE); “inactive; negative” (Test System: AMES SALMONELLA TYPHIMURIUM, Strain/Indicator: TA98, Metabolic Activation: HAMSTER, LIVER, S-9, AROCLOR 1254, Method: PREINCUBATION); “inactive; negative” under setting [1]; “inactive; negative” under setting [2]. In addition, the mutagenic call runs as follows: (Test System: AMES SALMONELLA TYPHIMURIUM, Strain/Indicator: TA100, Metabolic Activation: HAMSTER, LIVER, S-9, AROCLOR 1254, Method: PREINCUBATION) “inactive; negative”; under setting [3], “inactive; negative”; under setting [4], “inactive; negative”; (Test System: AMES SALMONELLA TYPHIMURIUM, Strain/Indicator: TA102, Metabolic Activation: NONE, Method: PREINCUBATION) “active; positive”; (Test System: AMES SALMONELLA TYPHIMURIUM, Strain/Indicator: TA104, Metabolic Activation: NONE, Method: PREINCUBATION) “active; positive”; (Test System: AMES SALMONELLA TYPHIMURIUM, Strain/Indicator: TA1535, Metabolic Activation: HAMSTER, LIVER, S-9, AROCLOR 1254, Method: PREINCUBATION) “inactive; negative”. Besides, the mutagenic call under setting [5] was “inactive; negative”; the mutagenic call under setting [6] is “inactive; negative”; the mutagenic call (Test System: AMES SALMONELLA TYPHIMURIUM, Strain/Indicator: TA1537, Metabolic Activation: HAMSTER, LIVER, S-9, AROCLOR 1254, Method: PREINCUBATION) is “inactive; negative”; the mutagenic call under setting [7] is “inactive; negative”; the mutagenic call under setting [8] was “inactive; negative”; the mutagenic call (Test System: MOUSE LYMPHOMA, Strain/Indicator: L5178Y (TK+/TK-), Metabolic Activation: NONE, Method: SUSPENSION/PLATE) was “active; positive”.
With `C#C[C@]1(OC(=O)CCCCCC)CC[C@H]2[C@@H]3CCC4=CC(=O)CC[C@@H]4[C@H]3CC[C@@]21C`, the mutagenic call was “inactive; negative” under setting [1]; “inactive; negative” under setting [9]; “inactive; negative” under setting [2]; “inactive; negative” under setting [10]; “inactive; negative” under setting [3]; “inactive; negative” under setting [11]. Moreover, the mutagenic call was “inactive; negative” under setting [4]; “inactive; negative” under setting [12]; “inactive; negative” under setting [5]; “inactive; negative” under setting [13]; “inactive; negative” under setting [6]; “inactive; negative” under setting [14]. Also, the mutagenic call under setting [7] is “inactive; negative”; the mutagenic call (Test System: AMES SALMONELLA TYPHIMURIUM, Strain/Indicator: TA1537, Metabolic Activation: NONE, Method: STANDARD PLATE) is “inactive; negative”; the mutagenic call under setting [8] is “inactive; negative”; the mutagenic call (Test System: AMES SALMONELLA TYPHIMURIUM, Strain/Indicator: TA1537, Metabolic Activation: RAT, LIVER, S-9, AROCLOR 1254, Method: STANDARD PLATE) is “inactive; negative”; the mutagenic call (Test System: AMES SALMONELLA TYPHIMURIUM, Strain/Indicator: TA1538, Metabolic Activation: NONE, Method: PREINCUBATION) is “inactive; negative”; the mutagenic call under setting [15] is “inactive; negative”. Also, the mutagenic call is “inactive; negative” (Test System: AMES SALMONELLA TYPHIMURIUM, Strain/Indicator: TA1538, Metabolic Activation: RAT, LIVER, S-9, AROCLOR 1254, Method: PREINCUBATION) and “inactive; negative” under setting [16].
Regarding `O=[N+]([O-])C(Cl)(Cl)Br`, the mutagenic call is, setting by setting: (Test System: Ames Salmonella typhimurium, Strain/Indicator: RSJ100, Metabolic Activation: None, Method: Standard plate) “inactive; negative”; (Test System: Ames Salmonella typhimurium, Strain/Indicator: RSJ100, Metabolic Activation: Rat, Liver, S-9, Aroclor, Method: Standard plate) “active; positive”; (Test System: Ames Salmonella typhimurium, Strain/Indicator: TA98, Metabolic Activation: None, Method: Standard plate) “inactive; negative”; (Test System: Ames Salmonella typhimurium, Strain/Indicator: TA98, Metabolic Activation: Rat, Liver, S-9, Aroclor, Method: Standard plate) “inactive; negative”; (Test System: Ames Salmonella typhimurium, Strain/Indicator: TA100, Metabolic Activation: None, Method: Standard plate) “inactive; negative”; (Test System: Ames Salmonella typhimurium, Strain/Indicator: TA100, Metabolic Activation: Rat, Liver, S-9, Aroclor, Method: Standard plate) “inactive; negative”. In addition, the mutagenic call (Test System: Ames Salmonella typhimurium, Strain/Indicator: TA104, Metabolic Activation: None, Method: Standard plate) was “active; positive”; the mutagenic call (Test System: Ames Salmonella typhimurium, Strain/Indicator: TA104, Metabolic Activation: Rat, Liver, S-9, Aroclor, Method: Standard plate) is “active; positive”; the mutagenic call (Test System: Ames Salmonella typhimurium, Strain/Indicator: TPT100, Metabolic Activation: None, Method: Standard plate) was “inactive; negative”.
For the molecule `CC(=O)O[C@@H]1[C@H](OC(C)=O)COC(Nc2ccc([N+](=O)[O-])cc2)[C@@H]1OC(C)=O` (some centres undefined), the mutagenic call under setting [11] is “active; positive”.
For the molecule `CCCCC/C=C/C(=O)CCc1ccc(O)c(OC)c1`, the mutagenic call runs as follows: under setting [9], “inactive; negative”; under setting [10], “inactive; negative”; under setting [11], “inactive; negative”; under setting [12], “active; positive”; under setting [13], “inactive; negative”; under setting [14], “active; positive”. The mutagenic call was “inactive; negative” under setting [15] and “inactive; negative” under setting [16].
On to `CCC[CH2][Sn]([Cl])([CH2]CCC)[CH2]CCC`, for which the mutagenic call (Test System: AMES SALMONELLA TYPHIMURIUM, Strain/Indicator: TA98, Metabolic Activation: NONE, Method: SUSPENSION/PLATE) is “inactive; negative” and the mutagenic call (Test System: AMES SALMONELLA TYPHIMURIUM, Strain/Indicator: TA100, Metabolic Activation: NONE, Method: SUSPENSION/PLATE) was “active; positive”.
As to `CC\C=C/C=C\C=C/C=C\C=C/C=C\OCC(O)CO` (centres undefined), the mutagenic call under setting [3] was “active; positive”.
